Changes are numbered by the printed parent chain. Where two headings read alike, the source gives them in different places.
Legend:
Format in all cases: binding
[1] = molecular target: T1, TAF3 S880A (GST-tagged PHD) (Mus musculus, UniProt Q5HZG4, S880A); assay: ITC of GST-tagged Taf3-PHD S880A
T1 construct: Mus musculus Taf3-PHD domain (residues 857–924); made in house; host or cells: E. coli BL21(DE3)
T1 sequence (Q5HZG4 857-924 S880A): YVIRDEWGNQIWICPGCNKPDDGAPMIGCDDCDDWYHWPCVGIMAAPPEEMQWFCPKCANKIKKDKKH
Description: (§1) The coding sequences of Mus musculus Taf3-PHD domain (residues 857–924) and Homosapiens PHF2 (1–66), PHF8 (37–102), and BPTF(2) (2865–2921) were cloned into the pGEX2T-derived vector, pRP265NB, for bacterial expression of GST-tagged proteins. Note that the PHD fingers of M. musculus Taf3 and H. sapiens TAF3 differ in a single amino acid. A901 in mouse corresponds to T899 in human. Here, amino acid numbering corresponds to mouse Taf3 isoform 1 with UniProt ID: Q5HZG4, accessible at https://www.uniprot.org/uniprotkb/Q5HZG4/entry. Single or double mutations were introduced by mutagenesis polymerase chain reaction and validated by Sanger sequencing. A single colony of freshly transformed BL21(DE3) Escherichia coli bacteria with the corresponding construct was grown in Luria broth (LB) medium supplemented with 50 μg/ml ampicillin until an OD600 of 0.7. […]
(§2) ITC experiments were performed at 20°C with a MicroCal VP-ITC microcalorimeter (Malvern) by sequential injection of 10 μl at 300 μM histone peptide during 20 s into the sample cell containing 30 or 15 μM of GST-Taf3 (wild type or mutant) or GST-BPTF, GST-PHF2, and GST-PHF8 PHDs in ITC buffer (100 mM NaCl, 20 mM Tris–HCl, pH 7.5). […] ITC data were subsequently analysed and fitted with the one-site binding model in the MicroCal ITC Origin Analysis software 7.0 (Table 1, Figs 3B and 5A, Supplementary Table S3, and Supplementary Fig. S10). […]

[2] = molecular target: T2, TAF3 P881F (GST-tagged PHD) (Mus musculus, UniProt Q5HZG4, P881F); assay: ITC of GST-tagged Taf3-PHD P881F
T2 construct: Mus musculus Taf3-PHD domain (residues 857–924); made in house; host or cells: E. coli BL21(DE3)
T2 sequence (Q5HZG4 857-924 P881F): T1 sequence (Q5HZG4 857-924 S880A) with A24S, P25F
Description: as §1, §2

[3] = molecular target: T3, TAF3 W894F (GST-tagged PHD) (Mus musculus, UniProt Q5HZG4, W894F); assay: ITC of GST-tagged Taf3-PHD W894F
T3 construct: Mus musculus Taf3-PHD domain (residues 857–924); made in house; host or cells: E. coli BL21(DE3)
T3 sequence (Q5HZG4 857-924 W894F): T1 sequence (Q5HZG4 857-924 S880A) with A24S, W38F
Description: as §1, §2

[4] = molecular target: T4, TAF3 W894I (GST-tagged PHD) (Mus musculus, UniProt Q5HZG4, W894I); assay: ITC of GST-tagged Taf3-PHD W894I
T4 construct: Mus musculus Taf3-PHD domain (residues 857–924); made in house; host or cells: E. coli BL21(DE3)
T4 sequence (Q5HZG4 857-924 W894I): T1 sequence (Q5HZG4 857-924 S880A) with A24S, W38I
Description: as §1, §2

[5] = molecular target: T5, TAF3 W894L (GST-tagged PHD) (Mus musculus, UniProt Q5HZG4, W894L); assay: ITC of GST-tagged Taf3-PHD W894L
T5 construct: Mus musculus Taf3-PHD domain (residues 857–924); made in house; host or cells: E. coli BL21(DE3)
T5 sequence (Q5HZG4 857-924 W894L): T1 sequence (Q5HZG4 857-924 S880A) with A24S, W38L
Description: as §1, §2

[6] = ITC, 20°C, 100 mM NaCl, 20 mM Tris–HCl, pH 7.5, one-site model, ± = standard error of fit, read-out: K D

Row | Structure (SMILES) | Kd [1, 6] | Kd [2, 6] | Kd [3, 6] | Kd [4, 6] | Kd [5, 6] | Kd [1] | Kd [2] | Kd [3] | Kd [4] | Kd [5]
1 | C[C@H](N)C(=O)N[C@@H](CCCNC(=N)N)C(=O)N[C@H](C(=O)N[C@@H](CCCC[N+](C)(C)C)C(=O)N[C@@H](CCC(N)=O)C(=O)N[C@H](C(=O)N[C@@H](C)C(=O)N[C@@H](CCCNC(=N)N)C(=O)N[C@@H](CCCCN)C(=O)N[C@@H](CO)C(=O)N[C@H](C(=O)NCC(N)=O)[C@@H](C)O)[C@@H](C)O)[C@@H](C)O [H3K4me3] | 207 ± 34 nM | 130 ± 4 nM | 126 ± 12 nM | 279 ± 17 nM | 595 ± 35 nM | – | – | – | – | –
2 | C[C@H](N)C(=O)N[C@@H](CCCNC(=N)N)C(=O)N[C@H](C(=O)N[C@@H](CCCC[N+](C)(C)C)C(=O)N[C@@H](CCC(=O)NCCc1c[nH]c2ccc(O)cc12)C(=O)N[C@H](C(=O)N[C@@H](C)C(=O)N[C@@H](CCCNC(=N)N)C(=O)N[C@@H](CCCCN)C(=O)N[C@@H](CO)C(=O)N[C@H](C(=O)NCC(N)=O)[C@@H](C)O)[C@@H](C)O)[C@@H](C)O [H3K4me3Q5ser] | – | – | – | – | – | 65 ± 5 nM | 124 ± 7 nM | 102 ± 1 nM | 106 ± 8 nM | 324 ± 18 nM

Reference: paper PMC12238850, “Molecular determinants for recognition of serotonylated chromatin” (Nucleic Acids Research, 2025)
